Experimental data taken from ChEMBL document CHEMBL4229379, “Synthesis and structure-activity relationship of novel bisindole amidines active against MDR Gram-positive and Gram-negative bacteria” (Eur J Med Chem, 2018).
In brackets after ≈: the same amount, converted by molar mass.

Experiments:
Klebsiella pneumoniae [1] = test: Antibacterial activity against extended-spectrum beta-lactamase harboring Klebsiella pneumoniae 12-8 after 18 hrs by CLSI broth microdilution method; type: functional; conditions: 12-8, 18 h
Citrobacter freundii = test: Antibacterial activity against Citrobacter freundii ATCC 43864 after 18 hrs by CLSI broth microdilution method; type: functional; conditions: ATCC 43864, 18 h
Enterococcus faecium [2] = test: Antibacterial activity against vancomycin-resistant Enterococcus faecium 12-1 after 18 hrs by CLSI broth microdilution method; type: functional; conditions: 12-1, 18 h
Enterococcus faecalis [3] = test: Antibacterial activity against vancomycin-sensitive Enterococcus faecalis 12-5 after 18 hrs by CLSI broth microdilution method; type: functional; conditions: 12-5, 18 h
Staphylococcus aureus [4] = test: Antibacterial activity against methicillin-resistant Staphylococcus aureus 12-33 after 18 hrs by CLSI broth microdilution method; type: functional; conditions: 12-33, 18 h
Staphylococcus aureus [5] = test: Antibacterial activity against methicillin-resistant Staphylococcus aureus ATCC 33591 after 18 hrs by CLSI broth microdilution method; type: functional; conditions: ATCC 33591, 18 h
Pseudomonas aeruginosa [6] = test: Antibacterial activity against Pseudomonas aeruginosa 12-16 after 18 hrs by CLSI broth microdilution method; type: functional; conditions: 12-16, 18 h
Escherichia coli [7] = test: Antibacterial activity against extended-spectrum beta-lactamase deficient Escherichia coli 1515 after 18 hrs by CLSI broth microdilution method; type: functional; conditions: Escherichia coli, 1515, 18 h
Staphylococcus aureus [8] = test: Antibacterial activity against methicillin-sensitive Staphylococcus aureus ATCC 29213 after 18 hrs by CLSI broth microdilution method; type: functional; conditions: ATCC 29213, 18 h
Enterococcus faecium [9] = test: Antibacterial activity against vancomycin-resistant Enterococcus faecium ATCC 700221 after 18 hrs by CLSI broth microdilution method; type: functional; conditions: ATCC 700221, 18 h
Klebsiella aerogenes = test: Antibacterial activity against Enterobacter aerogenes ATCC 13048 after 18 hrs by CLSI broth microdilution method; type: functional; conditions: ATCC 13048, 18 h
Escherichia coli [10] = test: Antibacterial activity against extended-spectrum beta-lactamase deficient Escherichia coli ATCC 25922 after 18 hrs by CLSI broth microdilution method; type: functional; conditions: ATCC 25922, 18 h
Enterobacter cloacae = test: Antibacterial activity against Enterobacter cloacae ATCC 43560 after 18 hrs by CLSI broth microdilution method; type: functional; conditions: ATCC 43560, 18 h
Escherichia coli [11] = test: Antibacterial activity against extended-spectrum beta-lactamase deficient Escherichia coli 12-14 after 18 hrs by CLSI broth microdilution method; type: functional; conditions: 12-14, 18 h
Providencia rettgeri = test: Antibacterial activity against Providencia rettgeri ATCC 31052 after 18 hrs by CLSI broth microdilution method; type: functional; conditions: ATCC 31052, 18 h
[12] = system: Staphylococcus epidermidis; test: Antibacterial activity against methicillin-sensitive Staphylococcus epidermidis 12-6 after 18 hrs by CLSI broth microdilution method; type: functional; conditions: 12-6, 18 h
[13] = system: Staphylococcus epidermidis; test: Antibacterial activity against methicillin-resistant Staphylococcus epidermidis 12-8 after 18 hrs by CLSI broth microdilution method; type: functional; conditions: 12-8, 18 h
Proteus vulgaris = test: Antibacterial activity against Proteus vulgaris ATCC 29905 after 18 hrs by CLSI broth microdilution method; type: functional; conditions: ATCC 29905, 18 h
Enterococcus faecalis [14] = test: Antibacterial activity against vancomycin-sensitive Enterococcus faecalis ATCC 29212 after 18 hrs by CLSI broth microdilution method; type: functional; conditions: ATCC 29212, 18 h
[15] = system: Acinetobacter calcoaceticus; test: Antibacterial activity against Acinetobacter calcoaceticus ATCC 19606 after 18 hrs by CLSI broth microdilution method; type: functional; conditions: ATCC 19606, 18 h
Klebsiella pneumoniae [16] = test: Antibacterial activity against new delhi metallo-beta-lactamase-1 harboring Klebsiella pneumoniae ATCC BAA-2146 after 18 hrs by CLSI broth microdilution method; type: functional; conditions: ATCC BAA-2146, 18 h
Escherichia coli [17] = test: Antibacterial activity against extended-spectrum beta-lactamase harboring Escherichia coli 12-15 after 18 hrs by CLSI broth microdilution method; type: functional; conditions: 12-15, 18 h
Klebsiella pneumoniae [18] = test: Antibacterial activity against extended-spectrum beta-lactamase harboring Klebsiella pneumoniae ATCC 700603 after 18 hrs by CLSI broth microdilution method; type: functional; conditions: Klebsiella pneumoniae, 700603, 18 h
Staphylococcus aureus [19] = test: Antibacterial activity against methicillin-sensitive Staphylococcus aureus 12-28 after 18 hrs by CLSI broth microdilution method; type: functional; conditions: 12-28, 18 h
Klebsiella pneumoniae [20] = test: Antibacterial activity against extended-spectrum beta-lactamase deficient Klebsiella pneumoniae 7 after 18 hrs by CLSI broth microdilution method; type: functional; conditions: Klebsiella pneumoniae, 7, 18 h
Staphylococcus aureus [21] = test: Antibacterial activity against methicillin-sensitive Staphylococcus aureus 15 after 18 hrs by CLSI broth microdilution method; type: functional; conditions: Staphylococcus aureus, 15, 18 h
Proteus mirabilis = test: Antibacterial activity against Proteus mirabilis 12-6 after 18 hrs by CLSI broth microdilution method; type: functional; conditions: 12-6, 18 h
Klebsiella pneumoniae [22] = test: Antibacterial activity against extended-spectrum beta-lactamase deficient Klebsiella pneumoniae 12-4 after 18 hrs by CLSI broth microdilution method; type: functional; conditions: 12-4, 18 h
[23] = Cytotoxicity against HEK293T cells assessed as reduction in cell viability after 48 hrs by MTS assay; type: cell-based, HEK-293T; conditions: human
[24] = system: Stenotrophomonas maltophilia; test: Antibacterial activity against Stenotrophomonas maltophilia ATCC 13636 after 18 hrs by CLSI broth microdilution method; type: functional; conditions: ATCC 13636, 18 h
Enterococcus faecium [25] = test: Antibacterial activity against vancomycin-sensitive Enterococcus faecium 12-3 after 18 hrs by CLSI broth microdilution method; type: functional; conditions: 12-3, 18 h
Pseudomonas aeruginosa [26] = test: Antibacterial activity against Pseudomonas aeruginosa PAO1 after 18 hrs by CLSI broth microdilution method; type: functional; conditions: PAO1, 18 h
Serratia marcescens = test: Antibacterial activity against Serratia marcescens ATCC 21074 after 18 hrs by CLSI broth microdilution method; type: functional; conditions: ATCC 21074, 18 h
Enterococcus faecalis [27] = test: Antibacterial activity against vancomycin-resistant Enterococcus faecalis 09-9 after 18 hrs by CLSI broth microdilution method; type: functional; conditions: 09-9, 18 h
Enterococcus faecalis [28] = test: Antibacterial activity against vancomycin-resistant Enterococcus faecalis ATCC 51299 after 18 hrs by CLSI broth microdilution method; type: functional; conditions: ATCC 51299, 18 h
Pseudomonas aeruginosa [29] = test: Antibacterial activity against Pseudomonas aeruginosa ATCC 27853 after 18 hrs by CLSI broth microdilution method; type: functional; conditions: ATCC 27853, 18 h
[30] = system: Staphylococcus epidermidis; test: Antibacterial activity against methicillin-sensitive Staphylococcus epidermidis ATCC 12228 after 18 hrs by CLSI broth microdilution method; type: functional; conditions: ATCC 12228, 18 h

SMILES	MIC (Klebsiella pneumoniae [1])	MIC (Citrobacter freundii)	MIC (Enterococcus faecium [2])	MIC (Enterococcus faecalis [3])	MIC (Staphylococcus aureus [4])	MIC (Staphylococcus aureus [5])	MIC (Pseudomonas aeruginosa [6])	MIC (Escherichia coli [7])	MIC (Staphylococcus aureus [8])	MIC (Enterococcus faecium [9])	MIC (Klebsiella aerogenes)	MIC (Escherichia coli [10])	MIC (Enterobacter cloacae)	MIC (Escherichia coli [11])	MIC (Providencia rettgeri)	MIC [12]	MIC [13]	MIC (Proteus vulgaris)	MIC (Enterococcus faecalis [14])	MIC [15]	other results
N=C(c1ccc2cc(-c3ccc(-c4cc5ccc(C(=N)N6CCC6)cc5[nH]4)cc3)[nH]c2c1)N1CCC1	32 mg/L (≈ 67.7 µM)	4 mg/L (≈ 8.46 µM)	1 mg/L (≈ 2.12 µM)	4 mg/L (≈ 8.46 µM)	4 mg/L (≈ 8.46 µM)	1 mg/L (≈ 2.12 µM)	128 mg/L (≈ 271 µM)	2 mg/L (≈ 4.23 µM)	2 mg/L (≈ 4.23 µM)	1 mg/L (≈ 2.12 µM)	4 mg/L (≈ 8.46 µM)	1 mg/L (≈ 2.12 µM)	8 mg/L (≈ 16.9 µM)	2 mg/L (≈ 4.23 µM)	8 mg/L (≈ 16.9 µM)	0.125 mg/L (≈ 0.264 µM)	0.125 mg/L (≈ 0.264 µM)	32 mg/L (≈ 67.7 µM)	4 mg/L (≈ 8.46 µM)	32 mg/L (≈ 67.7 µM)	MIC (Klebsiella pneumoniae [16]): 16 mg/L (≈ 33.9 µM); MIC (Escherichia coli [17]): 2 mg/L (≈ 4.23 µM); MIC (Klebsiella pneumoniae [18]): 32 mg/L (≈ 67.7 µM); MIC (Staphylococcus aureus [19]): 2 mg/L (≈ 4.23 µM); MIC (Klebsiella pneumoniae [20]): 16 mg/L (≈ 33.9 µM); MIC (Staphylococcus aureus [21]): 2 mg/L (≈ 4.23 µM); MIC (Proteus mirabilis): 16 mg/L (≈ 33.9 µM); MIC (Klebsiella pneumoniae [22]): 8 mg/L (≈ 16.9 µM); CC50 at 48 h [23]: 2.84 mg/L (≈ 6.01 µM); MIC [24]: 8 mg/L (≈ 16.9 µM); MIC (Enterococcus faecium [25]): 2 mg/L (≈ 4.23 µM); MIC (Pseudomonas aeruginosa [26]): 128 mg/L (≈ 271 µM); MIC (Serratia marcescens): 32 mg/L (≈ 67.7 µM); MIC (Enterococcus faecalis [27]): 1 mg/L (≈ 2.12 µM); MIC (Enterococcus faecalis [28]): 2 mg/L (≈ 4.23 µM); MIC (Pseudomonas aeruginosa [29]): 64 mg/L (≈ 135 µM); MIC [30]: 0.125 mg/L (≈ 0.264 µM)
N=C(c1ccc2cc(-c3ccc(-c4cc5ccc(C(=N)N6CCOCC6)cc5[nH]4)cc3)[nH]c2c1)N1CCOCC1	8 mg/L (≈ 15 µM)	4 mg/L (≈ 7.51 µM)	2 mg/L (≈ 3.75 µM)	8 mg/L (≈ 15 µM)	0.5 mg/L (≈ 0.939 µM)	0.5 mg/L (≈ 0.939 µM)	> 128 mg/L	4 mg/L (≈ 7.51 µM)	1 mg/L (≈ 1.88 µM)	4 mg/L (≈ 7.51 µM)	8 mg/L (≈ 15 µM)	4 mg/L (≈ 7.51 µM)	4 mg/L (≈ 7.51 µM)	4 mg/L (≈ 7.51 µM)	8 mg/L (≈ 15 µM)	0.5 mg/L (≈ 0.939 µM)	0.5 mg/L (≈ 0.939 µM)	8 mg/L (≈ 15 µM)	4 mg/L (≈ 7.51 µM)	32 mg/L (≈ 60.1 µM)	MIC (Klebsiella pneumoniae [16]): 8 mg/L (≈ 15 µM); MIC (Escherichia coli [17]): 4 mg/L (≈ 7.51 µM); MIC (Klebsiella pneumoniae [18]): 16 mg/L (≈ 30 µM); MIC (Staphylococcus aureus [19]): 0.5 mg/L (≈ 0.939 µM); MIC (Klebsiella pneumoniae [20]): 8 mg/L (≈ 15 µM); MIC (Staphylococcus aureus [21]): 0.5 mg/L (≈ 0.939 µM); MIC (Proteus mirabilis): 32 mg/L (≈ 60.1 µM); MIC (Klebsiella pneumoniae [22]): 16 mg/L (≈ 30 µM); CC50 at 48 h [23]: 16.4 mg/L (≈ 30.9 µM); MIC [24]: > 128 mg/L; MIC (Enterococcus faecium [25]): 4 mg/L (≈ 7.51 µM); MIC (Pseudomonas aeruginosa [26]): > 128 mg/L; MIC (Serratia marcescens): > 128 mg/L; MIC (Enterococcus faecalis [27]): 4 mg/L (≈ 7.51 µM); MIC (Enterococcus faecalis [28]): 4 mg/L (≈ 7.51 µM); MIC (Pseudomonas aeruginosa [29]): > 128 mg/L; MIC [30]: 0.5 mg/L (≈ 0.939 µM)
N=C(c1ccc2cc(-c3ccc(-c4cc5ccc(C(=N)N6CCCC6)cc5[nH]4)cc3)[nH]c2c1)N1CCCC1	8 mg/L (≈ 16 µM)	8 mg/L (≈ 16 µM)	4 mg/L (≈ 7.99 µM)	4 mg/L (≈ 7.99 µM)	2 mg/L (≈ 3.99 µM)	2 mg/L (≈ 3.99 µM)	64 mg/L (≈ 128 µM)	4 mg/L (≈ 7.99 µM)	2 mg/L (≈ 3.99 µM)	4 mg/L (≈ 7.99 µM)	8 mg/L (≈ 16 µM)	4 mg/L (≈ 7.99 µM)	8 mg/L (≈ 16 µM)	4 mg/L (≈ 7.99 µM)	8 mg/L (≈ 16 µM)	0.25 mg/L (≈ 0.499 µM)	1 mg/L (≈ 2 µM)	8 mg/L (≈ 16 µM)	4 mg/L (≈ 7.99 µM)	16 mg/L (≈ 32 µM)	MIC (Klebsiella pneumoniae [16]): 8 mg/L (≈ 16 µM); MIC (Escherichia coli [17]): 4 mg/L (≈ 7.99 µM); MIC (Klebsiella pneumoniae [18]): 16 mg/L (≈ 32 µM); MIC (Staphylococcus aureus [19]): 2 mg/L (≈ 3.99 µM); MIC (Klebsiella pneumoniae [20]): 8 mg/L (≈ 16 µM); MIC (Staphylococcus aureus [21]): 2 mg/L (≈ 3.99 µM); MIC (Proteus mirabilis): 8 mg/L (≈ 16 µM); MIC (Klebsiella pneumoniae [22]): 8 mg/L (≈ 16 µM); CC50 at 48 h [23]: 4.15 mg/L (≈ 8.29 µM); MIC [24]: 16 mg/L (≈ 32 µM); MIC (Enterococcus faecium [25]): 4 mg/L (≈ 7.99 µM); MIC (Pseudomonas aeruginosa [26]): > 128 mg/L; MIC (Serratia marcescens): 64 mg/L (≈ 128 µM); MIC (Enterococcus faecalis [27]): 4 mg/L (≈ 7.99 µM); MIC (Enterococcus faecalis [28]): 8 mg/L (≈ 16 µM); MIC (Pseudomonas aeruginosa [29]): > 128 mg/L; MIC [30]: 0.25 mg/L (≈ 0.499 µM)
